Patent US9617273B2, “Fused tetra or penta-cyclic dihydrodiazepinocarbazolones as PARP inhibitors” (BEIGENE, LTD., priority 2011, dated 2017)

Test system: PARP PARylation in HeLa cells
Assay: PARylation assay in HeLa cells
Type: cell-based
Conditions: H2O2-provoked DNA damage

Work on “10-(2-hydroxyethyl)-2,2-dimethyl-2,3,5,10-tetrahydro-[1,2]diazepino[3,4,5,6-def]carbazol-6(1H)-one [Compound 67]” yielded an EC50 of 247 nM.
